Experimental findings from the supplement of paper PMC10307832 are described below.

Experiment in all cases: relative viability (nuclei count vs DMSO), 5 days (fraction); higher = more cells survive
Compound in assay [1]: Cc1ccc2nc(NCCN)c3ncc(C)n3c2c1 + COc1cccc2cc(-c3nc([C@H]4CC[C@H](C(=O)O)CC4)n4ncnc(N)c34)[nH]c12 [OSI-027] (partner 0.5 µM)
The essentials:
(§1)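 Cells from lung cancer lines were seeded into 1536-well plates and, one day later, dosed by pin tool. Treatments were either a single drug or a fixed dose of an anchor drug with five library-drug doses (not always all listed) in √10 steps. After 5 days, nuclei were stained in a one-step fixation (final 0.05% Triton X-100, 1% formaldehyde, 1 ug/ml Hoechst) and counted on 4× images, and relative viability is the treated-to-vehicle nuclei ratio, as the median of duplicate plates.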

Compound in the assay “Salubrinal + Luminespib”: O=C(/C=C/c1ccccc1)NC(NC(=S)Nc1cccc2cccnc12)C(Cl)(Cl)Cl [Salubrinal] + CCNC(=O)c1noc(-c2cc(C(C)C)c(O)cc2O)c1-c1ccc(CN2CCOCC2)cc1 [Luminespib] (partner 0.01 µM)
The essentials:
as §1

Compound in the assay “Salubrinal + Lapatinib”: O=C(/C=C/c1ccccc1)NC(NC(=S)Nc1cccc2cccnc12)C(Cl)(Cl)Cl [Salubrinal] + CS(=O)(=O)CCNCc1ccc(-c2ccc3ncnc(Nc4ccc(OCc5cccc(F)c5)c(Cl)c4)c3c2)o1 [Lapatinib] (partner 2 µM)
The essentials:
as §1

Compound in the assay “Salubrinal + AZD7762”: O=C(/C=C/c1ccccc1)NC(NC(=S)Nc1cccc2cccnc12)C(Cl)(Cl)Cl [Salubrinal] + NC(=O)Nc1cc(-c2cccc(F)c2)sc1C(=O)N[C@H]1CCCNC1 [AZD7762] (partner 0.2 µM)
The essentials:
as §1

Take NCI-H23: the relative viability was 0.828 in assay [1] (first compound 0.04 µM); 0.709 in assay [1] (first compound 0.1265 µM); 0.54 in assay [1] (first compound 0.4 µM); 0.607 in assay [1] (first compound 1.265 µM); 0.531 in assay [1] (first compound 4 µM); 0.213 in the assay with Salubrinal + Luminespib (first compound 0.08 µM). Further, the relative viability with Salubrinal + Luminespib (first compound 0.253 µM) stood at 0.227; with Salubrinal + Luminespib (first compound 0.8 µM), 0.196; with Salubrinal + Luminespib (first compound 2.53 µM), 0.217; with Salubrinal + Luminespib (first compound 8 µM) it was 0.216; in the assay with Salubrinal + Lapatinib (first compound 0.08 µM) it was 1.08; with Salubrinal + Lapatinib (first compound 0.253 µM) it was 1.1. Further, the relative viability was determined as 1.34 with Salubrinal + Lapatinib (first compound 0.8 µM); 0.955 with Salubrinal + Lapatinib (first compound 2.53 µM); 1.36 in the assay with Salubrinal + Lapatinib (first compound 8 µM); 0.175 with Salubrinal + AZD7762 (first compound 0.08 µM); 0.206 in the assay with Salubrinal + AZD7762 (first compound 0.253 µM); 0.236 with Salubrinal + AZD7762 (first compound 0.8 µM). The relative viability with Salubrinal + AZD7762 (first compound 2.53 µM) and with Salubrinal + AZD7762 (first compound 8 µM) was 0.23 in each case.
Consider LOU-NH91, for which the relative viability came out at 0.795 in assay [1] (first compound 0.04 µM); 0.726 in assay [1] (first compound 0.1265 µM); 0.708 in assay [1] (first compound 0.4 µM); 0.762 in assay [1] (first compound 1.265 µM); 0.668 in assay [1] (first compound 4 µM); 0.304 in the assay with Salubrinal + Luminespib (first compound 0.08 µM). In addition, the relative viability was found to be 0.381 with Salubrinal + Luminespib (first compound 0.253 µM); 0.358 in the assay with Salubrinal + Luminespib (first compound 0.8 µM); 0.305 with Salubrinal + Luminespib (first compound 2.53 µM); 0.386 with Salubrinal + Luminespib (first compound 8 µM); 0.71 with Salubrinal + Lapatinib (first compound 0.08 µM); 0.776 with Salubrinal + Lapatinib (first compound 0.253 µM). Besides, the relative viability stood at 0.776 in the assay with Salubrinal + Lapatinib (first compound 0.8 µM); 0.778 with Salubrinal + Lapatinib (first compound 2.53 µM); 0.752 with Salubrinal + Lapatinib (first compound 8 µM); 0.813 in the assay with Salubrinal + AZD7762 (first compound 0.08 µM); 0.785 with Salubrinal + AZD7762 (first compound 0.253 µM); 0.83 with Salubrinal + AZD7762 (first compound 0.8 µM). Besides, the relative viability in the assay with Salubrinal + AZD7762 (first compound 2.53 µM) worked out at 0.745; in the assay with Salubrinal + AZD7762 (first compound 8 µM), 0.706.
Consider NCI-H2085, for which the relative viability worked out at 0.839 in assay [1] (first compound 0.04 µM); 0.819 in assay [1] (first compound 0.1265 µM); 0.658 in assay [1] (first compound 0.4 µM); 0.906 in assay [1] (first compound 1.265 µM); 0.742 in assay [1] (first compound 4 µM); 0.473 with Salubrinal + Luminespib (first compound 0.08 µM). Moreover, the relative viability with Salubrinal + Luminespib (first compound 0.253 µM) came out at 0.47; with Salubrinal + Luminespib (first compound 0.8 µM) it was 0.562; with Salubrinal + Luminespib (first compound 2.53 µM) it was 0.366; in the assay with Salubrinal + Luminespib (first compound 8 µM), 0.496; in the assay with Salubrinal + Lapatinib (first compound 0.08 µM), 0.684; with Salubrinal + Lapatinib (first compound 0.253 µM) it was 0.793. Also, the relative viability with Salubrinal + Lapatinib (first compound 0.8 µM) was found to be 0.898; with Salubrinal + Lapatinib (first compound 2.53 µM), 0.854; with Salubrinal + Lapatinib (first compound 8 µM), 0.737; in the assay with Salubrinal + AZD7762 (first compound 0.08 µM), 1.14; with Salubrinal + AZD7762 (first compound 0.253 µM), 0.905; with Salubrinal + AZD7762 (first compound 0.8 µM) it was 0.944. Moreover, the relative viability with Salubrinal + AZD7762 (first compound 2.53 µM) is 0.946; with Salubrinal + AZD7762 (first compound 8 µM), 0.932.
In the case of BEN, the relative viability in assay [1] (first compound 0.04 µM) is 0.316; in assay [1] (first compound 0.1265 µM) it was 0.291; in assay [1] (first compound 0.4 µM), 0.328; in assay [1] (first compound 1.265 µM) it was 0.276; in assay [1] (first compound 4 µM), 0.324; in the assay with Salubrinal + Luminespib (first compound 0.08 µM), 0.53. The relative viability with Salubrinal + Luminespib (first compound 0.253 µM) worked out at 0.323; with Salubrinal + Luminespib (first compound 0.8 µM), 0.425; in the assay with Salubrinal + Luminespib (first compound 2.53 µM), 0.354; with Salubrinal + Luminespib (first compound 8 µM) it was 0.265; with Salubrinal + Lapatinib (first compound 0.08 µM) it was 0.677; with Salubrinal + Lapatinib (first compound 0.253 µM) it was 0.732. Moreover, the relative viability is 0.751 with Salubrinal + Lapatinib (first compound 0.8 µM); 0.767 with Salubrinal + Lapatinib (first compound 2.53 µM); 0.894 in the assay with Salubrinal + Lapatinib (first compound 8 µM); 0.642 with Salubrinal + AZD7762 (first compound 0.08 µM); 0.727 with Salubrinal + AZD7762 (first compound 0.253 µM); 0.802 with Salubrinal + AZD7762 (first compound 0.8 µM). Besides, the results for the relative viability with Salubrinal + AZD7762 (first compound 2.53 µM) and with Salubrinal + AZD7762 (first compound 8 µM) were 0.712 and 0.72, respectively.
Regarding LK-2, the relative viability came to 0.173 in assay [1] (first compound 0.04 µM); 0.202 in assay [1] (first compound 0.1265 µM); 0.182 in assay [1] (first compound 0.4 µM); 0.188 in assay [1] (first compound 1.265 µM); 0.18 in assay [1] (first compound 4 µM); 0.219 with Salubrinal + Luminespib (first compound 0.08 µM). In addition, the relative viability is 0.183 in the assay with Salubrinal + Luminespib (first compound 0.253 µM); 0.214 with Salubrinal + Luminespib (first compound 0.8 µM); 0.211 in the assay with Salubrinal + Luminespib (first compound 2.53 µM); 0.166 with Salubrinal + Luminespib (first compound 8 µM); 1.07 with Salubrinal + Lapatinib (first compound 0.08 µM); 0.977 with Salubrinal + Lapatinib (first compound 0.253 µM). The relative viability with Salubrinal + Lapatinib (first compound 0.8 µM) turned out to be 1.16; with Salubrinal + Lapatinib (first compound 2.53 µM), 0.994; with Salubrinal + Lapatinib (first compound 8 µM), 0.85; with Salubrinal + AZD7762 (first compound 0.08 µM), 0.39; in the assay with Salubrinal + AZD7762 (first compound 0.253 µM), 0.486; with Salubrinal + AZD7762 (first compound 0.8 µM), 0.489. For the same cell line, the relative viability in the assay with Salubrinal + AZD7762 (first compound 2.53 µM) worked out at 0.441; in the assay with Salubrinal + AZD7762 (first compound 8 µM) it was 0.358.
